Assay [1] addresses T1, AccA (Agrobacterium fabrum, UniProt Q52012). Nature of the assay: biochemical. The settings on record: for fluorescence intensity / autofluorescence signal change on incubating AccA with ligand: tryptophan fluorescence, excitation 295 nm, emission 335 nm. It counts as binding, Agrobacterium tumefaciens C58. The protocol:
Ligand binding to the protein AccA was investigated using tryptophan fluorescence spectroscopy, a method exploiting significant conformational changes accompanying the binding.
All experiments were performed at 22°C in 3 x 15 mm quartz cuvettes using Cary Eclypse spectrofluorometer (Varian) in 25 mM Tris-HCl pH 8.0 and 150 mM NaCl with a fixed amount of proteins (2 μM) and increasing concentrations of ligand. […] The data were analysed using Origin 7 software and fitted to the equation f = ΔFluorescencemax*abs(x)/(K D+abs(x)).

Assay [2] addresses T1, AccA. Nature of the assay: AccA isothermal titration microcalorimetry. Format: binding, Agrobacterium tumefaciens C58. The settings on record: for binding to AccA detected by microcalorimetry / TΔS / ΔG / ΔH / N (binding stoichiometry) / K (association binding constant): ITC; for K (association binding constant): Ka in M-1. As for the experimental part:
(§1) Isothermal titration microcalorimetry experiments were performed with an ITC200 isothermal titration calorimeter from MicroCal (GE Healthcare). The experiments were carried out at 20°C for AccA and 25°C for AccR. […] For agrocin 84 experiment, we inverted the protein and ligand positions: the ligand was in the cell and the protein in the syringe. This strategy was chosen to overcome the small amount of agrocin 84. The experimental data were fitted to theoretical titration curves with software supplied by MicroCal (ORIGIN). This software uses the relationship between the heat generated by each injection and ΔH (enthalpy change in Kcal.Mol-1), Ka (the association binding constant in M-1), n (the number of binding sites), total protein concentration and free and total ligand concentrations.
Target sequence in this assay (Q52012 entry or part of it): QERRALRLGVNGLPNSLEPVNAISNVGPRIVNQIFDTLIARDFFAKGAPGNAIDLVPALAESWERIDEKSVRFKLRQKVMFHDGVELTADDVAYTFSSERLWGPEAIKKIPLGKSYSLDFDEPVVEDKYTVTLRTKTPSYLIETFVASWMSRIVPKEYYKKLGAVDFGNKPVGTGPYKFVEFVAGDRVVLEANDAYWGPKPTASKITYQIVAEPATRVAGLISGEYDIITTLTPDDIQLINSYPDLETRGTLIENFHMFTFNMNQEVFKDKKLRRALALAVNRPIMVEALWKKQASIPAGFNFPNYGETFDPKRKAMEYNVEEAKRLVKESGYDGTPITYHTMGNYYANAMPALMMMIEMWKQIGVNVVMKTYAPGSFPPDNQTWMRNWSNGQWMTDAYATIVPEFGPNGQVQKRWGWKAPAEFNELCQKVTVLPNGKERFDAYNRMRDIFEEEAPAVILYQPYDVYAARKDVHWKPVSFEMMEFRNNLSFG

Assay [3] relates to A. tumefaciens C58. Nature of the assay: Ti plasmid conjugation assay. The note with it: for Ti plasmid transconjugants: C58 control donor with recipient C58.00, 1 mM compound; for Ti plasmid conjugation: 1 mM compound. Format: cell-based, Agrobacterium tumefaciens. As for the experimental part:
(§2) In complementation assay, the accF wild-type gene was cloned into p6000 [50] plasmid and electroporated into the accF mutant. Rifampicin-resistant recipient strain C58.00 was derived from A. tumefaciens C58 cured of the At and Ti plasmids. A. tumefaciens was cultivated at 28°C in AB minimal medium containing ammonium chloride (1 g/L) and mannitol (2 g/L), or in Luria-Bertani modified medium (LBm; NaCl 5 g/L). The antibiotics gentamycin and rifampicin were added at 25 μg/mL and 100 μg/mL, respectively.
(§3) Overnight LBm cultures of recipient (C58.00) and donor (C58 control) cells were mixed in an equal ratio (1:1). 10 μl of this mix were transferred into 140 μl of AB medium supplemented with mock or 1 mM of agrocinopine A, L-arabinose-2-phosphate and glucose-2-P for static liquid cultures of 24, 48, 72 and 96 hours. Suspension dilutions of these cultures were spotted onto selective agar media to enumerate the different bacterial populations (donor, recipient and Ti plasmid transconjugants). In parallel, to quantify OC8HSLs, aliquots of cell cultures were spotted onto TLC plates (RP-18/UV254, Macherey-Nagel) and incubated with the OC8HSL-bioindicator strain A. tumefaciens NT1(pZLR4) as previously described. Tested samples were compared with a calibration curve obtained with pure OC8HSL (Sigma-Aldrich).

Assay [4] has as its system A. tumefaciens C58. Kind of assay: Quantification of OC8HSL quorum-sensing signal in cell cultures. Format: cell-based, Agrobacterium tumefaciens. The note with it: 1 mM compound. As for the experimental part: as §2, §3
A further assay addresses T2, AccR (Agrobacterium fabrum, UniProt P32104).
T2 construct: 6-His tag (C); made in house; host or cells: E. coli C41
Nature of the assay: AccR isothermal titration microcalorimetry. Format: binding, Agrobacterium tumefaciens C58. As for the experimental part: The question arose about their biological role in A. tumefaciens, especially in relation to regulation of the AccR/quorum-sensing pathway that controls dissemination of the Ti plasmid. We first measured the affinity of the synthetic agrocinopine A towards purified recombinant AccR by isothermal titration microcalorimetry.
as §1

The test system of assay [5] is A. tumefaciens C58. Nature of the assay: Uptake assay: growth with compound as sole carbon source. It counts as cell-based, Agrobacterium tumefaciens. The note with it: 1 mM in AB media, OD600 monitored for 48 hours. As for the experimental part: This experiment confirmed that the transporter can uptake bulky synthetic molecules such as agrocinopine 3’-O-benzoate into the cell as observed for the toxin agrocin 84, which is also a relatively large molecule.
A single colony of Agrobacterium tumefaciens C58 with pTiC58 derivative pTi::Gm was grown overnight at 28°C in AB media supplemented with mannitol (2 g/L) and gentamicin 25 μg.ml-1. 20 ml of AB media in presence of a carbon source (agrocinopine 3’-O-benzoate or L-arabinose-2-phosphate at a final concentration of 1 mM) or in absence of any carbon source and supplemented with gentamicin (25 μg.ml-1) were inoculated at an initial OD600 of 0.03 and the OD was monitored for 48 hours.

The target of assay [6] is AccR, master transcriptional regulator (transcriptional repressor of the DeoR family) of Agrobacterium tumefaciens C58 (Agrobacterium tumefaciens C58). Nature of the assay: native gel or EMSA; native gel electrophoresis of purified recombinant AccR in solution; conditions not given, no figure or methods section for this gel.
[7] abbreviates: AccA 2 μM, 22°C, 25 mM Tris-HCl pH 8.0, 150 mM NaCl, one binding site model, ND: no signal detected, read-out: apparent KD (autofluorescence titration).
Setting [8] is: accF mutant complemented with accF wild type (p6000).

“And” between values parts separate entries of the source, which are not always exact repeats. Equal values may be shown once. “Also recorded” adds a separate entry of the source.

T2 sequence (P32104 whole entry): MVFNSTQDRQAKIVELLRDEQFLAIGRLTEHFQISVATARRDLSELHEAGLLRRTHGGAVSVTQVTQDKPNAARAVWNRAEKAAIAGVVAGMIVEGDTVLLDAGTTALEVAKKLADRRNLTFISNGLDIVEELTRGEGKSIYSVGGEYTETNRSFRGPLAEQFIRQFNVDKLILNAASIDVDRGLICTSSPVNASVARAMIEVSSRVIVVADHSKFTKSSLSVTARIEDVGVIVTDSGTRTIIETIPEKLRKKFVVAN
Sequence of AccR, master transcriptional regulator (transcriptional repressor of the DeoR family) of Agrobacterium tumefaciens C58 (natural protein) (O30540 whole entry): as the sequence (P32104 whole entry) above

As for `O=P(O)(O)O[C@H]1C(O)O[C@H](CO)[C@@H](O)[C@@H]1O` (stereo partly drawn), at AccA [1], the Kd stood at 2.5 µM.

For `OC1OC[C@H](O)[C@H](O)[C@H]1O` (mixture of isomers) [L-arabinose, reference compound], the “fluorescence intensity / autofluorescence signal change on incubating AccA with ligand” value on AccA [1] was “No fluorescence intensity change”. For the same compound, at AccA [2], the “binding to AccA detected by microcalorimetry” value was “No signal detected; also recorded: could not detect any binding”.

Regarding `CC(C)OP(=O)(O)O[C@H]1C(O)OC[C@H](O)[C@@H]1O` (stereo partly drawn) [L-arabinose-2-isopropylphosphate], the Kd at AccA [1] (setting [7]) worked out at 4.79 ± 0.6 µM. The Kd at AccA [2] was 2.2 ± 0.58 µM. On AccA [2] (20°C), the TΔS is recorded as -8E3 cal/mol/K, the ΔG was -31.8 kJ/mol, the ΔH is -1.56E4 ± 493 cal/mol and the “K (association binding constant)” value is on record as 4.72E5 ± 1.2E5. Further, at AccA [2] (20°C, one binding site model), the “N (binding stoichiometry)” value is on record as 1.08 ±0.03.

Regarding `O=C[C@H](OP(=O)(O)O)[C@@H](O)[C@@H](O)CO` [L-arabinose-2-phosphate], the Ti plasmid transconjugants entry in the assay on A. tumefaciens C58 [3] is listed as “could also be detected”. Moreover, the Ti plasmid conjugation entry with A. tumefaciens C58 [3] (accF defective mutant donor) is recorded as “still activated”. Moreover, the “accumulation of quorum-sensing molecules” value in the assay on A. tumefaciens C58 [4] (accF defective mutant) was “still observed”. Moreover, the Kd at AccR came out at 0.11 ± 0.06 µM. Moreover, on AccR (ITC, 25°C), the “n1 (stoichiometry, first step)” value worked out at 0.4 and the “n2 (stoichiometry, second step)” value is reported as 0.9. For the same compound, the Kd at AccA [1] (setting [7]) was determined as 2.93 ± 0.66 µM. Also, the Kd on AccA [2] is 1.33 ± 0.12 µM. For the same compound, on AccA [2] (20°C), the TΔS is -3.2E3, the ΔG is -33.1 kJ/mol, the ΔH is on record as -1.11E4 ± 168 cal/mol and the “K (association binding constant)” value was found to be 7.54E5 ±6.5E4. Also, the “N (binding stoichiometry)” value at AccA [2] (20°C, one binding site model) worked out at 0.95 ± 0.01.

`Nc1ncnc2c1ncn2[C@@H]1O[C@H](COP(=O)(O)O)[C@@H](O)[C@H]1O` [adenosine monophosphate, reference compound]: the “binding to AccA detected by microcalorimetry” value at AccA [2] is reported as “could not detect any binding”.

As for `O=C(OC1C(OP(=O)(O)OC2C(O)OCC(O)C2O)C(CO)OC1(CO)OC1OC(CO)C(O)C(O)C1O)c1ccccc1` (stereo not drawn) [agrocinopine 3’-O-benzoate], the Kd at AccA [1] (apparent KD (autofluorescence titration), AccA 2 μM, 22°C, 25 mM Tris-HCl pH 8.0, 150 mM NaCl, one binding site model, ND: no signal detected) worked out at 5.88 ± 1.6 µM. Further, in the assay on A. tumefaciens C58 [5], the “bacterial growth with compound as sole carbon source” value is recorded as “used as nutrient by the bacteria as indicated by bacterial growth”. The compound further displayed a Kd at AccA [2] of 7.5 ± 2.2 µM. Further, the “fold lower affinity with AccA in comparison with agrocinopine A” value at AccA [2] (ITC KD values) was 25 fold. At AccA [2] (20°C), the TΔS stood at 3.2E3, the ΔG is -28.9 kJ/mol, the ΔH is -3.7E3 ± 374 cal/mol and the “K (association binding constant)” value was found to be 1.33E5. Further, at AccA [2] (20°C, one binding site model), the “N (binding stoichiometry)” value is reported as 0.99 ± 0.06.

On to `O=P(O)(OC1C(O)OCC(O)C1O)OC1C(CO)OC(CO)(OC2OC(CO)C(O)C(O)C2O)C1O` (stereo not drawn) [agrocinopine A], for which the Ti plasmid transconjugants entry with A. tumefaciens C58 [3] is reported as “could also be detected”. In addition, the results for the Ti plasmid conjugation entry in the assay on A. tumefaciens C58 [3] (accF defective mutant donor) and in the assay on A. tumefaciens C58 [3] (setting [8]) were “abolished” and “restored”, respectively. Besides, the “accumulation of quorum-sensing molecules” value in the assay with A. tumefaciens C58 [4] (accF defective mutant) is listed as “abolished”; in the assay with A. tumefaciens C58 [4] (setting [8]) it was “restored”. In addition, the “affinity towards purified recombinant AccR” value on AccR (ITC) is “no affinity was detected”. Besides, the Kd at AccA [1] (setting [7]) was 1.32 µM and 1.3 µM; on AccA [2] it was 0.3 ± 0.03 µM. Further, the TΔS on AccA [2] (20°C) is -2.6E3. In addition, the ΔG on AccA [2] (20°C) was -36 kJ/mol. Besides, at AccA [2] (20°C), the ΔH is listed as -1.12E4 ± 98 cal/mol. On AccA [2] (20°C, one binding site model), the “N (binding stoichiometry)” value was 1 ± 0.006. Further, on AccA [2] (20°C), the “K (association binding constant)” value is recorded as 2.99E6 ± 2.9E5.

`O=P(O)(O)O[C@H]1O[C@H](CO)[C@@H](O)[C@H](O)[C@H]1O` [glucose-1-phosphate, reference compound]: the “fluorescence intensity / autofluorescence signal change on incubating AccA with ligand” value on AccA [1] is “no autofluorescence signal changes”.

For the compound `O=C[C@H](O)[C@@H](O)[C@H](O)[C@H](O)COP(=O)(O)O` [glucose-6-phosphate, reference compound], the “fluorescence intensity / autofluorescence signal change on incubating AccA with ligand” value on AccA [1] is recorded as “no autofluorescence signal changes”.

As for “AccR, master transcriptional regulator (transcriptional repressor of the DeoR family) of Agrobacterium tumefaciens C58 (natural protein)”, the stoichiometry N in assay [6] was 2.

In the case of agrocin 84 [reference compound], on AccA [1], the “fluorescence intensity / autofluorescence signal change on incubating AccA with ligand” value is “no signal was measured”. Also, the Kd at AccA [2] (20°C, one binding site model, read-out: mean KD (isothermal titration microcalorimetry)) is 1.5 ± 0.41 µM. At AccA [2] (20°C), the TΔS was -3.6E4, the ΔG is -32.2 kJ/mol, the ΔH was -183 ± 15.9 kJ/mol and the “K (association binding constant)” value was 6.83E5 ± 1.8E5. Besides, the “N (binding stoichiometry)” value on AccA [2] (20°C, one binding site model) was 0.8 ± 0.043.

For phosphate [reference compound], the “fluorescence intensity / autofluorescence signal change on incubating AccA with ligand” value at AccA [1] is on record as “No fluorescence intensity change”.

These data come from publication PMC4526662, “A Pyranose-2-Phosphate Motif Is Responsible for Both Antibiotic Import and Quorum-Sensing Regulation in Agrobacterium tumefaciens” (PLoS Pathogens, 2015).
